Results on six compounds are retold here after patent US20050075335A1, “Pharmaceutical composition comprising n((1-n-butyl-4-piperidinyl)methyl)-3,4-dihydro-2h-(1,3)oxazino(3,2-a)indole-10-carboxamide or salt and process therefor comprising dry granulation” (priority 2002, published 2005).

This data set is described as follows: Aerated and tapped bulk density of SB-207266-A. The format is physicochemical.
Where [1] appears, read: SB-207266-A batches from Description 1.
The mark [2] stands for this setting: typical value, product of Description 2.

Each structure is given as a SMILES string. Structures can show the parent of a compound that is named as a salt.

As for `CCCCN1CCC(CNC(=O)c2c3n(c4ccccc24)CCCO3)CC1.Cl` [BDC-G-02C], under setting [1], the Aerated bulk density came to 0.142 g/mL and the “Tapped bulk Density” value is 0.300 g/mL.

Take `CCCCN1CCC(CNC(=O)c2c3n(c4ccccc24)CCCO3)CC1.Cl` [BDC-G-04C]: under setting [1], the Aerated bulk density was 0.146 g/mL and the “Tapped bulk Density” value came to 0.310 g/mL.

With `CCCCN1CCC(CNC(=O)c2c3n(c4ccccc24)CCCO3)CC1.Cl` [BDC-G-05C], under setting [1], the Aerated bulk density was determined as 0.152 g/mL and the “Tapped bulk Density” value came to 0.308 g/mL.

On to `CCCCN1CCC(CNC(=O)c2c3n(c4ccccc24)CCCO3)CC1.Cl` [BDC-G-03C], for which, under setting [1], the Aerated bulk density worked out at 0.173 g/mL and the “Tapped bulk Density” value turned out to be 0.339 g/mL.

For the compound `CCCCN1CCC(CNC(=O)c2c3n(c4ccccc24)CCCO3)CC1` [SB-207266-A, N-[(1-^nbutyl-4-piperidinyl)methyl]-3,4-dihydro-2H-[1,3]-oxazino[3,2-a]indole-10-carboxamide hydrochloride], under setting [2], the Aerated bulk density result is listed as “ca. 0.14 g/ml” and the Tapped bulk Density entry was “ca. 0.31 g/ml”.

Take `CCCCN1CCC(CNC(=O)c2c3n(c4ccccc24)CCCO3)CC1.Cl` [BDC-H-01C]: under setting [1], the Aerated bulk density worked out at 0.136 g/mL and the “Tapped bulk Density” value was found to be 0.250 g/mL.
